Measurements as given in US20260263442A1, “METHOD FOR TREATING L-DOPA-INDUCED DYSKINESIA USING BEFIRADOL” (Neurolixis, Inc., priority 2023, published 2026).
Like-named read-outs stand apart in the source and are kept apart here.

Legend:
[1] = tested on: pain in PD patients with LID; experiment: King's Parkinson's Disease Pain Scale (KPPS), Phase 2a study; type: in vivo, human
Description: The KPPS is a rater-interview-based scale conducted with the patient and caregiver (if available). It is a 14-item scale covering 7 domains of pain: • Musculoskeletal pain • Chronic pain • Fluctuation-related pain • Nocturnal pain • Orofacial pain • Edema/swelling; discoloration • Radicular pain Each item is scored by severity (0-3; none to very severe) multiplied by frequency (0-4; never to all the time), for an item sub score of 0-12, resulting in a total score from 0 to 168. Ratings are based on the previous month, or in the case of this study, the intervening period since the previous clinic visit (about 3 weeks). Treatment effects would be analyzed as change from baseline for total score and for individual pain domains.

[2] = tested on: overactive bladder in PD patients with LID; experiment: ICIQ Overactive Bladder Module (ICIQ-OAB), Phase 2a study; type: in vivo, human
Description: The ICIQ-OAB provides a brief and robust measure to assess the impact of symptoms of overactive bladder on quality of life and outcome of treatment. It is a 4-item patient reported outcome covering 4 domains of bladder function: frequency, nocturia, urgency, and urge urinary incontinence. Each item is scored by frequency of 0-4, for a total score of 0-16. Ratings would be based on the previous month or since the last clinic visit. Efficacy would be assessed as change from the baseline total score.

[3] = both, human, in vivo
5-HT1A receptors = molecular target: T1, 5-HT1A receptors (Homo sapiens, UniProt P08908); conditions: cited from earlier work
T1 sequence (P08908 1-422): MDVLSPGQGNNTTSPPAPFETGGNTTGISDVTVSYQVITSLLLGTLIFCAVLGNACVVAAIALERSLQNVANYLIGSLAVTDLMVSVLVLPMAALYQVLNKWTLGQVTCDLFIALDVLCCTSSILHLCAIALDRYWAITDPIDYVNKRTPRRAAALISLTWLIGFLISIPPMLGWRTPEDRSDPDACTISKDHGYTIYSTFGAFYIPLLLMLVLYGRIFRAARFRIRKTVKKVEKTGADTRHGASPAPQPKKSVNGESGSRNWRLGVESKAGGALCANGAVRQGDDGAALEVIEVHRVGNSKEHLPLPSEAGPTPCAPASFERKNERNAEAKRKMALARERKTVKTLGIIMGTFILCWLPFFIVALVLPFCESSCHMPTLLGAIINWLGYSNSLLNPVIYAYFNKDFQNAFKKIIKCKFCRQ

MPTP-treated marmosets = conditions: cited from earlier work

Cc1ccc(CNCC2(F)CCN(C(=O)c3ccc(F)c(Cl)c3)CC2)nc1 [NLX-112]
KPPS, Baseline, mean (S.D.) ([1]; Baseline, Per Protocol Set, n = 15): 16.0 (9.9) | KPPS total score, change from baseline ([1]; Day 42): statistically significant improvement | KPPS, Δ D28, mean (S.D.) ([1]; change from baseline at day 28 (end of up-titration period), Per Protocol Set, n = 15, **p < 0.01 vs baseline (LMM)): −4.6 (7.5)** | KPPS, Δ D42, mean (S.D.) ([1]; change from baseline at day 42 (end of stable dosing period), Per Protocol Set, n = 15, **p < 0.01 vs baseline (LMM)): −4.8 (7.8)** | Incontinence (ICIQ-OAB), effect ([2]; Days 28 or 42): no consistent statistically significant effect | ICIQ-OAB, Δ D28, mean (S.D.) ([2]; change from baseline at day 28 (end of up-titration period), Per Protocol Set, n = 15): 0.7 (6.5) | ICIQ-OAB, Δ D42, mean (S.D.) ([2]; change from baseline at day 42 (end of stable dosing period), Per Protocol Set, n = 15): −0.8 (8.02) | Befiradol Cmax in female subjects, higher than males by [3]: 20%-40% | 5-HT1A receptor agonist profile (5-HT1A receptors): exceptional selectivity for 5-HT1A receptors and full agonist properties | 5-HT1A receptor agonist profile (5-HT1A receptors; listed as Befiradol): selective and potent | Cellular signaling (biased agonist profile) (5-HT1A receptors; via G-proteins): preferentially activates specific cellular signaling cascades | Disability scores (MPTP-treated marmosets): reduces disability scores
